The compounds below were run against T1, RORc ligand binding domain (Homo sapiens, UniProt P51449) (assay: In Vitro RORc Ligand Binding Assay (25-[3H]hydroxycholesterol radioligand filtration)). Conditions: In Vitro RORc Ligand Binding Assay; Table 4; read-out: RORc IC50.
T1 construct: host or cells: E. coli
T1 sequence (P51449 269-508 limits assumed): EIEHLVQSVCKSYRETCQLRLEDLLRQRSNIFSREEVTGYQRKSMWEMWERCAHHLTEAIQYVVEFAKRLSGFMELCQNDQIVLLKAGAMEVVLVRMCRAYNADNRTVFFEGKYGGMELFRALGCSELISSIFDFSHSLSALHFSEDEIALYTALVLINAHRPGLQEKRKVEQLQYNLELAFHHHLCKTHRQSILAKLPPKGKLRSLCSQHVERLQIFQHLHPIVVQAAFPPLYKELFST
For C[C@H]1CCC(c2ccccc2)S(=O)(=O)N1Cc1ccc(NC2CCN(S(C)(=O)=O)CC2)c(F)c1 (stereo partly drawn) [Example 236, [2-Fluoro-4-((3S)-methyl-1,1-dioxo-6-phenyl-[1,2]thiazinan-2-ylmethyl)-phenyl]-(1-methanesulfonyl-piperidin-4-yl)-amine], the IC50 was 6 nM.
For CC(=O)N1CCN(c2ccc(CN3[C@@H](C)CCC(c4ccccc4)S3(=O)=O)c(F)c2)[C@@H](C)C1 (stereo partly drawn) [Example 237, 1-{4-[3-Fluoro-4-((3S)-methyl-1,1-dioxo-6-phenyl-[1,2]thiazinan-2-ylmethyl)-phenyl]-3-methyl-piperazin-1-yl}-ethanone], the IC50 was 6 nM.
With CC(=O)N1CCN(c2ccc(CN3[C@@H](C)CCC(c4ccccc4)S3(=O)=O)c(F)c2)C[C@@H]1C (stereo partly drawn) [Example 238, 1-{4-[3-Fluoro-4-((3S)-methyl-1,1-dioxo-6-phenyl-[1,2]thiazinan-2-ylmethyl)-phenyl]-2-methyl-piperazin-1-yl}-ethanone] the IC50 was 8 nM.
C[C@H]1CCC(c2ccccc2)S(=O)(=O)N1Cc1ccc(N[C@H]2C[C@@H](n3cnnc3)C2)cc1F (stereo partly drawn) [Example 241, [3-Fluoro-4-((3S)-methyl-1,1-dioxo-6-phenyl-[1,2]thiazinan-2-ylmethyl)-phenyl]-(3-[1,2,4]triazol-4-yl-cyclobutyl)-amine] showed an IC50 of 85 nM.
CC(=O)N1C[C@@H]2CN(c3ccc(CN4[C@@H](C)CCC(c5ccccc5)S4(=O)=O)c(F)c3)C[C@@H]2C1 (stereo partly drawn) [Example 245, 1-{(3aR,6aS)-5-[3-Fluoro-4-((3S)-methyl-1,1-dioxo-6-phenyl-[1,2]thiazinan-2-ylmethyl)-phenyl]-hexahydro-pyrrolo[3,4-c]pyrrol-2-yl}-ethanone] showed an IC50 of 189 nM.
In the case of COC(=O)[C@H]1CN(c2ccc(CN3[C@@H](C)CCC(c4ccccc4)S3(=O)=O)c(F)c2)CCN1C(C)=O (stereo partly drawn) [Example 260, 1-Acetyl-4-[3-fluoro-4-((3S)-methyl-1,1-dioxo-6-phenyl-[1,2]thiazinan-2-ylmethyl)-phenyl]-piperazine-2-carboxylic acid methyl ester], the IC50 is reported as 31 nM.
CC(=O)N1CCN(c2ccc(CN3[C@@H](C)CCC(c4ccccc4)S3(=O)=O)c(F)c2)C[C@@H]1C(=O)O (stereo partly drawn) [Example 261, 1-Acetyl-4-[3-fluoro-4-((3S)-methyl-1,1-dioxo-6-phenyl-[1,2]thiazinan-2-ylmethyl)-phenyl]-piperazine-2-carboxylic acid] gave an IC50 of 379 nM.
With CC(=O)N1CCN(c2ccc(CN3[C@@H](C)CCC(c4ccccc4)S3(=O)=O)c(F)c2)C[C@@H]1CO (stereo partly drawn) [Example 262, 1-{4-[3-Fluoro-4-((3S)-methyl-1,1-dioxo-6-phenyl-[1,2]thiazinan-2-ylmethyl)-phenyl]-2-hydroxymethyl-piperazin-1-yl}-ethanone] the IC50 was 82 nM.
With C[C@H]1CN(c2ccc(CN3[C@@H](C)CCC(c4ccccc4)S3(=O)=O)c(F)c2)CCN1C(=O)CC#N (stereo partly drawn) [Example 263, 3-{4-[3-Fluoro-4-((3S)-methyl-1,1-dioxo-6-phenyl-[1,2]thiazinan-2-ylmethyl)-phenyl]-2-methyl-piperazin-1-yl}-3-oxo-propionitrile] the IC50 was 15 nM.
For CC(=O)N1CCN(c2ccc(CN3[C@@H](C)CCC(c4ccccc4)S3(=O)=O)c(F)c2)C[C@H]1C (stereo partly drawn) [Example 264, 1-{4-[3-Fluoro-4-((3S)-methyl-1,1-dioxo-6-phenyl-[1,2]thiazinan-2-ylmethyl)-phenyl]-2-methyl-piperazin-1-yl}-ethanone], the IC50 was 18 nM.
For C[C@@H]1CC(c2ccccc2)S(=O)(=O)N(Cc2ccc(N3CCC(n4cnnc4)CC3)cc2F)C1 (stereo partly drawn) [Example 265, 2-[2-Fluoro-4-(4-[1,2,4]triazol-4-yl-piperidin-1-yl)-benzyl]-(4R)-methyl-6-phenyl-[1,2]thiazinane 1,1-dioxide], the IC50 was 66 nM.
C[C@H]1CCC(c2ccccc2)S(=O)(=O)N1Cc1ccc(C(=O)NC2CC(O)C2)cc1 (stereo partly drawn) [Example 268, N-(3-Hydroxy-cyclobutyl)-4-((3S)-methyl-1,1-dioxo-6-phenyl-[1,2]thiazinan-2-ylmethyl)-benzamide] showed an IC50 of 3250 nM.
In the case of C[C@H]1CCC(c2ccccc2)S(=O)(=O)N1Cc1ccc(C(=O)NCC2COC2)cc1 (stereo partly drawn) [Example 269, 4-((3S)-Methyl-1,1-dioxo-6-phenyl-[1,2]thiazinan-2-ylmethyl)-N-oxetan-3-ylmethyl-benzamide], the IC50 is reported as 1670 nM.
C[C@H]1CCC(c2ccccc2)S(=O)(=O)N1Cc1ccc(C(=O)NC2CCCC2O)cc1 (stereo partly drawn) [Example 270, N-(2-Hydroxy-cyclopentyl)-4-((3S)-methyl-1,1-dioxo-6-phenyl-[1,2]thiazinan-2-ylmethyl)-benzamide] showed an IC50 of 2440 nM.
For C[C@H]1CCC(c2ccccc2)S(=O)(=O)N1Cc1ccc(C(=O)NCC2CCOC2)cc1 (stereo partly drawn) [Example 271, 4-((3S)-Methyl-1,1-dioxo-6-phenyl-[1,2]thiazinan-2-ylmethyl)-N-(tetrahydro-furan-3-ylmethyl)-benzamide], the IC50 was 1690 nM.
For C[C@H]1CCC(c2ccccc2)S(=O)(=O)N1Cc1ccc(C(=O)NCCCN2CCCC2=O)cc1 (stereo partly drawn) [Example 272, 4-((3S)-Methyl-1,1-dioxo-6-phenyl-[1,2]thiazinan-2-ylmethyl)-N-[3-(2-oxo-pyrrolidin-1-yl)-propyl]-benzamide], the IC50 was 2890 nM.
For C[C@H]1CCC(c2ccccc2)S(=O)(=O)N1Cc1ccc(C(=O)NC2CCCC(O)C2)cc1 (stereo partly drawn) [Example 273, N-(3-Hydroxy-cyclohexyl)-4-((3S)-methyl-1,1-dioxo-6-phenyl-[1,2]thiazinan-2-ylmethyl)-benzamide], the IC50 was 5470 nM.
Compound C[C@H]1CCC(c2ccccc2)S(=O)(=O)N1Cc1ccc(C(=O)NC2CCC(O)CC2)cc1 (stereo partly drawn) [Example 274, N-(4-Hydroxy-cyclohexyl)-4-((3S)-methyl-1,1-dioxo-6-phenyl-[1,2]thiazinan-2-ylmethyl)-benzamide] has an IC50 of 4410 nM.
Compound C[C@H]1CCC(c2ccccc2)S(=O)(=O)N1Cc1ccc(C(=O)NCCN2CCCC2=O)cc1 (stereo partly drawn) [Example 275, 4-((3S)-Methyl-1,1-dioxo-6-phenyl-[1,2]thiazinan-2-ylmethyl)-N-[2-(2-oxo-pyrrolidin-1-yl)-ethyl]-benzamide] has an IC50 of 6050 nM.
With CCOC(=O)N1CCC(NC(=O)c2ccc(CN3[C@@H](C)CCC(c4ccccc4)S3(=O)=O)cc2)CC1 (stereo partly drawn) [Example 276, 4-[4-((3S)-Methyl-1,1-dioxo-6-phenyl-[1,2]thiazinan-2-ylmethyl)-benzoylamino]-piperidine-1-carboxylic acid ethyl ester] the IC50 was 4440 nM.
C[C@H]1CCC(c2ccccc2)S(=O)(=O)N1Cc1ccc(C(=O)NCCN2CCCCC2=O)cc1 (stereo partly drawn) [Example 277, 4-((3S)-Methyl-1,1-dioxo-6-phenyl-[1,2]thiazinan-2-ylmethyl)-N-[2-(2-oxo-piperidin-1-yl)-ethyl]-benzamide] gave an IC50 of 5110 nM.
C[C@H]1CCC(c2ccccc2)S(=O)(=O)N1Cc1ccc(C(=O)N2CCC(CO)CC2)cc1 (stereo partly drawn) [Example 278, (4-Hydroxymethyl-piperidin-1-yl)-[4-((3S)-methyl-1,1-dioxo-6-phenyl-[1,2]thiazinan-2-ylmethyl)-phenyl]-methanone] showed an IC50 of 1100 nM.
For C[C@H]1CCC(c2ccccc2)S(=O)(=O)N1Cc1ccc(C(=O)N2CCC(C#N)CC2)cc1 (stereo partly drawn) [Example 279, 1-[4-((3S)-Methyl-1,1-dioxo-6-phenyl-[1,2]thiazinan-2-ylmethyl)-benzoyl]-piperidine-4-carbonitrile], the IC50 was 4280 nM.
In the case of C[C@H]1CCC(c2ccccc2)S(=O)(=O)N1Cc1ccc(C(=O)N2CCCCC2CO)cc1 (stereo partly drawn) [Example 280, (2-Hydroxymethyl-piperidin-1-yl)-[4-((3S)-methyl-1,1-dioxo-6-phenyl-[1,2]thiazinan-2-ylmethyl)-phenyl]-methanone], the IC50 is reported as 2650 nM.
For C[C@H]1CCC(c2ccccc2)S(=O)(=O)N1Cc1ccc(C(=O)N2CCCC(CO)C2)cc1 (stereo partly drawn) [Example 281, (3-Hydroxymethyl-piperidin-1-yl)-[4-((3S)-methyl-1,1-dioxo-6-phenyl-[1,2]thiazinan-2-ylmethyl)-phenyl]-methanone], the IC50 was 2040 nM.
C[C@H]1CCC(c2ccccc2)S(=O)(=O)N1Cc1ccc(C(=O)N2CCCOCC2)cc1 (stereo partly drawn) [Example 282, [4-((3S)-Methyl-1,1-dioxo-6-phenyl-[1,2]thiazinan-2-ylmethyl)-phenyl]-[1,4]oxazepan-4-yl-methanone] showed an IC50 of 5060 nM.
C[C@H]1CCC(c2ccccc2)S(=O)(=O)N1Cc1ccc(C(=O)N(C)CC2CCCO2)cc1 (stereo partly drawn) [Example 283, N-Methyl-4-((3S)-methyl-1,1-dioxo-6-phenyl-[1,2]thiazinan-2-ylmethyl)-N-(tetrahydro-furan-2-ylmethyl)-benzamide] was tested, and the IC50 was 1310 nM.
C[C@H]1CCC(c2ccccc2)S(=O)(=O)N1Cc1ccc(C(=O)N2CCCC(O)CC2)cc1 (stereo partly drawn) [Example 284, (4-Hydroxy-azepan-1-yl)-[4-((3S)-methyl-1,1-dioxo-6-phenyl-[1,2]thiazinan-2-ylmethyl)-phenyl]-methanone] showed an IC50 of 1430 nM.
CC(=O)N1CCCN(C(=O)c2ccc(CN3[C@@H](C)CCC(c4ccccc4)S3(=O)=O)cc2)CC1 (stereo partly drawn) [Example 285, 1-{4-[4-((3S)-Methyl-1,1-dioxo-6-phenyl-[1,2]thiazinan-2-ylmethyl)-benzoyl]-[1,4]diazepan-1-yl}-ethanone] gave an IC50 of 4000 nM.
Work on C[C@H]1CCC(c2ccccc2)S(=O)(=O)N1Cc1ccc(C(=O)N2CCN(S(=O)(=O)N(C)C)CC2)cc1 (stereo partly drawn) [Example 286, 4-[4-((3S)-Methyl-1,1-dioxo-6-phenyl-[1,2]thiazinan-2-ylmethyl)-benzoyl]-piperazine-1-sulfonic acid dimethylamide] yielded an IC50 of 7420 nM.
Compound C[C@H]1CCC(c2ccccc2)S(=O)(=O)N1Cc1ccc(C(=O)N2CCN(S(C)(=O)=O)CC2)cc1 (stereo partly drawn) [Example 287, (4-Methanesulfonyl-piperazin-1-yl)-[4-((3S)-methyl-1,1-dioxo-6-phenyl-[1,2]thiazinan-2-ylmethyl)-phenyl]-methanone] has an IC50 of 203 nM.
